Results on 40 compounds are retold here after patent publication US7781591B2, “Substituted 3-cyanopyridines as protein kinase inhibitors” (Wyeth LLC, priority 2006, dated 2010).

The target of the assay is T1, human PKCθ full length enzyme (Homo sapiens, UniProt Q04759).
T1 construct: human PKCθ full length enzyme (Panvera Cat# P2996); purchased Panvera P2996
Kind of assay: PKCθ IMAP assay (fluorescence polarization). Particulars: human PKCθ full length enzyme, IMAP; average value; read-out: IC50 PKCθ IMAP. Format: biochemical.

T1 sequence (Q04759 whole entry): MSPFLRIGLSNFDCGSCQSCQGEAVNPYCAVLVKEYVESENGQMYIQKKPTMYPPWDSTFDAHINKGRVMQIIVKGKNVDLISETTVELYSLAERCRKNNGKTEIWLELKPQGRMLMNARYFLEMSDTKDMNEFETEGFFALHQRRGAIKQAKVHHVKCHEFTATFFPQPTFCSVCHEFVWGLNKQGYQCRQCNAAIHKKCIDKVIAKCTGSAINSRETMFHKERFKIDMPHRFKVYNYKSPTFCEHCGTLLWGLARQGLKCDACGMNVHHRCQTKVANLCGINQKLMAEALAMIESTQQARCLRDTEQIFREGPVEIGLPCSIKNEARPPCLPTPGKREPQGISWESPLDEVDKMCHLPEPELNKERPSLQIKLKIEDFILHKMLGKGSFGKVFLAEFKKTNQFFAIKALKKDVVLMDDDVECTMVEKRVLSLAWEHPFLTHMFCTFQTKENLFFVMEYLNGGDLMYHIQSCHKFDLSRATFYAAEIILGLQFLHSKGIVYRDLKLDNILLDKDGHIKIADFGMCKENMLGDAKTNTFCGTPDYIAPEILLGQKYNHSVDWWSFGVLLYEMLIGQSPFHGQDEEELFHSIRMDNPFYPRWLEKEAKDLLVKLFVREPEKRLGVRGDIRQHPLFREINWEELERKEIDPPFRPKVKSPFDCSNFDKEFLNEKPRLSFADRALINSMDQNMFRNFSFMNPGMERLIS

Take `COc1ccc(-c2cncc(C#N)c2Nc2ccc3[nH]ccc3c2)cc1OCCN1CCC(O)CC1` [Compound 238, 5-{3-[2-(4-hydroxypiperidin-1-yl)ethoxy]-4-methoxyphenyl}-4-(1H-indol-5-ylamino)nicotinonitrile]: the IC50 worked out at 210 nM.

`COc1ccc(-c2cncc(C#N)c2Nc2ccc3[nH]ccc3c2)cc1OCCNCc1cccnc1` [Compound 239, 4-(1H-indol-5-ylamino)-5-(4-methoxy-3-{2-[(pyridin-3-ylmethyl)amino]ethoxy}phenyl)nicotinonitrile]: the half-inhibitory concentration (IC50) was determined as 80 nM. For `COc1ccc(-c2cncc(C#N)c2Nc2ccc3[nH]ccc3c2)cc1OCCNCc1ccncc1` [Compound 240, 4-(1H-indol-5-ylamino)-5-(4-methoxy-3-{2-[(pyridin-4-ylmethyl)amino]ethoxy}phenyl)nicotinonitrile] the value was 80 nM; for `COc1ccc(-c2cncc(C#N)c2Nc2ccc3[nH]ccc3c2)cc1OCCNCc1ccccn1` [Compound 241, 4-(1H-indol-5-ylamino)-5-(4-methoxy-3-{2-[(pyridin-2-ylmethyl)amino]ethoxy}phenyl)nicotinonitrile], 80 nM; for `COc1ccc(-c2cncc(C#N)c2Nc2ccc3[nH]ccc3c2)cc1OCCNCCc1ccccc1` [Compound 242, 4-(1H-indol-5-ylamino)-5-(4-methoxy-3-{2-[(2-phenylethyl)amino]ethoxy}phenyl)nicotinonitrile], 20 nM. Regarding `COc1ccc(-c2cncc(C#N)c2Nc2ccc3[nH]ccc3c2)cc1OCCNC1CCCC1` [Compound 243, 5-{3-[2-(cyclopentylamino)ethoxy]-4-methoxyphenyl}-4-(1H-indol-5-ylamino)nicotinonitrile], the IC50 was 230 nM. For `COc1ccc(-c2cncc(C#N)c2Nc2ccc3[nH]ccc3c2)cc1OCCNC1CCCCC1` [Compound 244, 5-{3-[2-(cyclohexylamino)ethoxy]-4-methoxyphenyl}-4-(1H-indol-5-ylamino)nicotinonitrile] the value was 170 nM. For `COc1ccc(-c2cncc(C#N)c2Nc2ccc3[nH]ccc3c2)cc1OCCNCc1ccco1` [Compound 245, 5-(3-{2-[(2-furylmethyl)amino]ethoxy}-4-methoxyphenyl)-4-(1H-indol-5-ylamino)nicotinonitrile] the value was 270 nM; for `COc1cc(Br)c(-c2cncc(C#N)c2Nc2ccc3[nH]ccc3c2)cc1OC` [Compound 246, 5-(2-bromo-4,5-dimethoxyphenyl)-4-(1H-indol-5-ylamino)nicotinonitrile], 160 nM. The figure for `COc1cc(Br)c(-c2cncc(C#N)c2Nc2ccc3[nH]ccc3c2C)cc1OC` [Compound 247, 5-(2-bromo-4,5-dimethoxyphenyl)-4-[(4-methyl-1H-indol-5-yl)amino]nicotinonitrile] is 100 nM.

`COc1ccc(-c2cncc(C#N)c2Nc2cccc3[nH]ccc23)cc1OCCN1CCCCC1` [Compound 248, 4-(1H-indol-4-ylamino)-5-[4-methoxy-3-(2-piperidin-1-ylethoxy)phenyl]nicotinonitrile]: the IC50 was found to be 50 nM.

In the case of `COc1ccc(-c2cncc(C#N)c2Nc2cccc3[nH]ccc23)cc1OCCNCCO` [Compound 249, 5-(3-{2-[(2-hydroxyethyl)amino]ethoxy}-4-methoxyphenyl)-4-(1H-indol-4-ylamino)nicotinonitrile], the half-inhibitory concentration (IC50) is 30 nM. The figure for `COc1ccc(-c2cncc(C#N)c2Nc2ccc3[nH]ccc3c2)cc1OCCNCCCc1ccccc1` [Compound 250, 4-(1H-indol-5-ylamino)-5-(4-methoxy-3-{2-[(3-phenylpropyl)amino]ethoxy}phenyl)nicotinonitrile] is 20 nM. Consider `COc1ccc(-c2cncc(C#N)c2Nc2ccc3[nH]ccc3c2)cc1OCCNCCc1ccccn1` [Compound 251, 4-(1H-indol-5-ylamino)-5-(4-methoxy-3-{2-[(2-pyridin-2-ylethyl)amino]ethoxy}phenyl)nicotinonitrile], for which the half-maximal inhibitory concentration (IC50) was found to be 40 nM. The figure for `COc1ccc(-c2cncc(C#N)c2Nc2ccc3[nH]ccc3c2)cc1OCCNCCc1cccnc1` [Compound 252, 4-(1H-indol-5-ylamino)-5-(4-methoxy-3-{2-[(2-pyridin-3-ylethyl)amino]ethoxy}phenyl)nicotinonitrile] is 30 nM; for `COc1ccc(-c2cncc(C#N)c2Nc2ccc3[nH]ccc3c2)cc1OCCNCCc1ccncc1` [Compound 253, 4-(1H-indol-5-ylamino)-5-(4-methoxy-3-{2-[(2-pyridin-4-ylethyl)amino]ethoxy}phenyl)nicotinonitrile] it is 50 nM; for `CN(C)c1cccc(-c2cncc(C#N)c2Nc2cccc3[nH]ccc23)c1` [Compound 254, 5-[3-(dimethylamino)phenyl]-4-(1H-indol-4-ylamino)nicotinonitrile] it is 80 nM. For `CS(=O)(=O)c1cccc(-c2cncc(C#N)c2Nc2cccc3[nH]ccc23)c1` [Compound 255, 4-(1H-indol-4-ylamino)-5-[3-(methylsulfonyl)phenyl]nicotinonitrile] the value was 80 nM; for `CS(=O)(=O)Nc1cccc(-c2cncc(C#N)c2Nc2cccc3[nH]ccc23)c1` [Compound 256, N-{3-[5-cyano-4-(1H-indol-4-ylamino)pyridin-3-yl]phenyl}methanesulfonamide], 20 nM; for `N#Cc1cncc(-c2ccccc2)c1Nc1ccc2[nH]ccc2c1` [Compound 257, 4-(1H-indol-5-ylamino)-5-phenylnicotinonitrile], 100 nM. The figure for `N#Cc1cncc(-c2ccsc2)c1Nc1ccc2[nH]ccc2c1` [Compound 258, 4-(1H-indol-5-ylamino)-5-(3-thienyl)nicotinonitrile] is 100 nM. For `N#Cc1cncc(-c2cccnc2)c1Nc1ccc2[nH]ccc2c1` [Compound 259, 4-(1H-indol-5-ylamino)-3,3′-bipyridine-5-carbonitrile], the concentration for half-maximal inhibition (IC50) was 1370 nM. The figure for `N#Cc1cncc(-c2ccc3c(c2)OCO3)c1Nc1ccc2[nH]ccc2c1` [Compound 260, 5-(1,3-benzodioxol-5-yl)-4-(1H-indol-5-ylamino)nicotinonitrile] is 70 nM. Turning to `N#Cc1cncc(-c2ccncc2)c1Nc1ccc2[nH]ccc2c1` [Compound 261, 4-(1H-indol-5-ylamino)-3,4′-bipyridine-5-carbonitrile], the IC50 worked out at 80 nM. For `N#Cc1cncc(-c2ccoc2)c1Nc1ccc2[nH]ccc2c1` [Compound 262, 5-(3-furyl)-4-(1H-indol-5-ylamino)nicotinonitrile] the value was 120 nM; for `N#Cc1cncc(-c2ccc3[nH]ccc3c2)c1Nc1ccc2[nH]ccc2c1` [Compound 263, 5-(1H-indol-5-yl)-4-(1H-indol-5-ylamino)nicotinonitrile], 50 nM.

For `N#Cc1cncc(-c2ccc3c(c2)OCCO3)c1Nc1ccc2[nH]ccc2c1` [Compound 264, 5-(2,3-dihydro-1,4-benzodioxin-6-yl)-4-(1H-indol-5-ylamino)nicotinonitrile], the half-inhibitory concentration (IC50) was determined as 60 nM. Regarding `N#Cc1cncc(-c2cncnc2)c1Nc1ccc2[nH]ccc2c1` [Compound 265, 4-(1H-indol-5-ylamino)-5-pyrimidin-5-ylnicotinonitrile], the IC50 was determined as 3860 nM. The figure for `COc1ncc(-c2cncc(C#N)c2Nc2ccc3[nH]ccc3c2)cn1` [Compound 266, 4-(1H-indol-5-ylamino)-5-(2-methoxypyrimidin-5-yl)nicotinonitrile] is 1450 nM.

Regarding `N#Cc1cncc(-c2cccs2)c1Nc1ccc2[nH]ccc2c1` [Compound 267, 4-(1H-indol-5-ylamino)-5-(2-thienyl)nicotinonitrile], the concentration for half-maximal inhibition (IC50) was 100 nM. For `N#Cc1cncc(-c2cc3ccccc3o2)c1Nc1ccc2[nH]ccc2c1` [Compound 268, 5-(1-benzofuran-2-yl)-4-(1H-indol-5-ylamino)nicotinonitrile] the value was 10 nM; for `Cc1noc(C)c1-c1cncc(C#N)c1Nc1ccc2[nH]ccc2c1` [Compound 269, 5-(3,5-dimethylisoxazol-4-yl)-4-(1H-indol-5-ylamino)nicotinonitrile], 10900 nM; for `N#Cc1cncc(-c2cccc(CO)c2)c1Nc1cccc2[nH]ccc12` [Compound 270, 5-[3-(hydroxymethyl)phenyl]-4-(1H-indol-4-ylamino)nicotinonitrile], 20 nM. The figure for `CN(C)Cc1cccc(-c2cncc(C#N)c2Nc2cccc3[nH]ccc23)c1` [Compound 271, 5-{3-[(dimethylamino)methyl]phenyl}-4-(1H-indol-4-ylamino)nicotinonitrile] is 100 nM. For `C#CCNCc1ccc2sc(-c3cncc(C#N)c3Nc3cccc4[nH]ccc34)cc2c1` [Compound 272, 4-(1H-indol-4-ylamino)-5-{5-[(prop-2-yn-1-ylamino)methyl]-1-benzothien-2-yl}nicotinonitrile] the value was 4 nM; for `CCCCNCc1ccc2sc(-c3cncc(C#N)c3Nc3cccc4[nH]ccc34)cc2c1` [Compound 273, 5-{5-[(butylamino)methyl]-1-benzothien-2-yl}-4-(1H-indol-4-ylamino)nicotinonitrile], 2 nM. For the compound `N#Cc1cncc(-c2cc3cc(CNCCO)ccc3s2)c1Nc1cccc2[nH]ccc12` [Compound 274, 5-(5-{[(2-hydroxyethyl)amino]methyl}-1-benzothien-2-yl)-4-(1H-indol-4-ylamino)nicotinonitrile], the IC50 worked out at 2 nM.

For `N#Cc1cncc(-c2cc3cc(CNCCCO)ccc3s2)c1Nc1cccc2[nH]ccc12` [Compound 275, 5-(5-{[(3-hydroxypropyl)amino]methyl}-1-benzothien-2-yl)-4-(1H-indol-4-ylamino)nicotinonitrile], the IC50 was found to be 2 nM. For `COCCCNCc1ccc2sc(-c3cncc(C#N)c3Nc3cccc4[nH]ccc34)cc2c1` [Compound 276, 4-(1H-indol-4-ylamino)-5-(5-{[(3-methoxypropyl)amino]methyl}-1-benzothien-2-yl)nicotinonitrile] the value was 2 nM; for `N#Cc1cncc(-c2cc3cc(CNCCCCO)ccc3s2)c1Nc1cccc2[nH]ccc12` [Compound 277, 5-(5-{[(4-hydroxybutyl)amino]methyl}-1-benzothien-2-yl)-4-(1H-indol-4-ylamino)nicotinonitrile], 3 nM.
